Laboratory results reported in PubChem BioAssay (NCI).
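How tested: cells in 96-well plates exposed to compound for 48 hours at five concentrations. GI50: concentration for 50% inhibition of growth. TGI is the concentration that stops growth completely.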

Legend:
Assay in all cases: NCI-60 cell line screen, 48 h
T-47D breast = system: T-47D breast
RPMI-8226 leukemia = system: RPMI-8226 leukemia
UO-31 renal = system: UO-31 renal
SK-MEL-5 melanoma = system: SK-MEL-5 melanoma
SN12C renal = system: SN12C renal
SR leukemia = system: SR leukemia
UACC-62 melanoma = system: UACC-62 melanoma
HOP-62 NSCLC = system: HOP-62 NSCLC
SNB-19 CNS = system: SNB-19 CNS
MDA-MB-435 = system: MDA-MB-435
HCT-116 colon = system: HCT-116 colon
UACC-257 melanoma = system: UACC-257 melanoma
CAKI-1 renal = system: CAKI-1 renal
HL-60(TB) leukemia = system: HL-60(TB) leukemia
SNB-75 CNS = system: SNB-75 CNS
OVCAR-4 ovarian = system: OVCAR-4 ovarian
HCC-2998 colon = system: HCC-2998 colon
MDA-MB-231 breast = system: MDA-MB-231 breast
SF-539 CNS = system: SF-539 CNS
SK-OV-3 ovarian = system: SK-OV-3 ovarian
HCT-15 colon = system: HCT-15 colon
BT-549 breast = system: BT-549 breast
IGROV1 ovarian = system: IGROV1 ovarian
K-562 leukemia = system: K-562 leukemia
OVCAR-5 ovarian = system: OVCAR-5 ovarian
MCF7 breast = system: MCF7 breast
SF-295 CNS = system: SF-295 CNS
RXF 393 renal = system: RXF 393 renal
HT29 colon = system: HT29 colon
CCRF-CEM leukemia = system: CCRF-CEM leukemia
COLO 205 colon = system: COLO 205 colon
A498 renal = system: A498 renal
HS 578T breast = system: HS 578T breast
SF-268 CNS = system: SF-268 CNS
DU-145 prostate = system: DU-145 prostate
NCI-H522 lung = system: NCI-H522 lung
HOP-92 NSCLC = system: HOP-92 NSCLC
SK-MEL-28 melanoma = system: SK-MEL-28 melanoma
MALME-3M melanoma = system: MALME-3M melanoma
TK-10 renal = system: TK-10 renal
NCI-H23 lung = system: NCI-H23 lung
KM12 colon = system: KM12 colon
NCI-H226 lung = system: NCI-H226 lung
OVCAR-3 ovarian = system: OVCAR-3 ovarian
NCI-H460 lung = system: NCI-H460 lung
786-0 renal = system: 786-0 renal
OVCAR-8 ovarian = system: OVCAR-8 ovarian
U251 CNS = system: U251 CNS
SW-620 colon = system: SW-620 colon
PC-3 prostate = system: PC-3 prostate
LOX IMVI melanoma = system: LOX IMVI melanoma
M14 melanoma = system: M14 melanoma
MOLT-4 leukemia = system: MOLT-4 leukemia
SK-MEL-2 melanoma = system: SK-MEL-2 melanoma
EKVX NSCLC = system: EKVX NSCLC
ACHN renal = system: ACHN renal
NCI/ADR-RES ovarian = system: NCI/ADR-RES ovarian
A549 NSCLC = system: A549 NSCLC

SMILES: CCN(CC)c1ccc(/C=N/NC(=O)c2ccc(S(C)(=O)=O)cc2)c(O)c1
- GI50 (T-47D breast): 444 nM
- TGI (T-47D breast): > 100000 nM
- GI50 (RPMI-8226 leukemia): 399 nM
- TGI (RPMI-8226 leukemia): > 100000 nM
- GI50 (UO-31 renal): 200 nM
- TGI (UO-31 renal): 3490 nM
- GI50 (SK-MEL-5 melanoma): 330 nM
- TGI (SK-MEL-5 melanoma): 2490 nM
- GI50 (SN12C renal): 415 nM
- TGI (SN12C renal): > 100000 nM
- GI50 (SR leukemia): 97.2 nM
- TGI (SR leukemia): > 100000 nM
- GI50 (UACC-62 melanoma): 306 nM
- TGI (UACC-62 melanoma): 15100 nM
- GI50 (HOP-62 NSCLC): 156 nM
- TGI (HOP-62 NSCLC): > 57900 nM
- GI50 (SNB-19 CNS): 560 nM
- TGI (SNB-19 CNS): > 100000 nM
- GI50 (MDA-MB-435): 605 nM
- TGI (MDA-MB-435): > 100000 nM
- GI50 (HCT-116 colon): 186 nM
- TGI (HCT-116 colon): > 100000 nM
- GI50 (UACC-257 melanoma): 340 nM
- TGI (UACC-257 melanoma): 5600 nM
- GI50 (CAKI-1 renal): 199 nM
- TGI (CAKI-1 renal): > 100000 nM
- GI50 (HL-60(TB) leukemia): 288 nM
- TGI (HL-60(TB) leukemia): 3010 nM
- GI50 (SNB-75 CNS): 292 nM
- TGI (SNB-75 CNS): > 29300 nM
- GI50 (OVCAR-4 ovarian): 139 nM
- TGI (OVCAR-4 ovarian): > 80300 nM
- GI50 (HCC-2998 colon): 292 nM
- TGI (HCC-2998 colon): > 100000 nM
- GI50 (MDA-MB-231 breast): 347 nM
- TGI (MDA-MB-231 breast): > 100000 nM
- GI50 (SF-539 CNS): 287 nM
- TGI (SF-539 CNS): 12000 nM
- GI50 (SK-OV-3 ovarian): 251 nM
- TGI (SK-OV-3 ovarian): 57800 nM
- GI50 (HCT-15 colon): 120 nM
- TGI (HCT-15 colon): > 100000 nM
- GI50 (BT-549 breast): 596 nM
- TGI (BT-549 breast): > 39900 nM
- GI50 (IGROV1 ovarian): 292 nM
- TGI (IGROV1 ovarian): > 100000 nM
- GI50 (K-562 leukemia): 900 nM
- TGI (K-562 leukemia): > 100000 nM
- GI50 (OVCAR-5 ovarian): 2860 nM
- TGI (OVCAR-5 ovarian): > 100000 nM
- GI50 (MCF7 breast): 300 nM
- TGI (MCF7 breast): > 100000 nM
- GI50 (SF-295 CNS): 259 nM
- TGI (SF-295 CNS): > 100000 nM
- GI50 (RXF 393 renal): 452 nM
- TGI (RXF 393 renal): > 62100 nM
- GI50 (HT29 colon): 469 nM
- TGI (HT29 colon): > 100000 nM
- GI50 (CCRF-CEM leukemia): 82.5 nM
- TGI (CCRF-CEM leukemia): > 100000 nM
- GI50 (COLO 205 colon): 297 nM
- TGI (COLO 205 colon): > 100000 nM
- GI50 (A498 renal): 4980 nM
- TGI (A498 renal): > 100000 nM
- GI50 (HS 578T breast): 6440 nM
- TGI (HS 578T breast): > 100000 nM
- GI50 (SF-268 CNS): 167 nM
- TGI (SF-268 CNS): > 100000 nM
- GI50 (DU-145 prostate): 308 nM
- TGI (DU-145 prostate): > 100000 nM
- GI50 (NCI-H522 lung): 455 nM
- TGI (NCI-H522 lung): > 100000 nM
- GI50 (HOP-92 NSCLC): 439 nM
- TGI (HOP-92 NSCLC): 32900 nM
- GI50 (SK-MEL-28 melanoma): 362 nM
- TGI (SK-MEL-28 melanoma): > 100000 nM
- GI50 (MALME-3M melanoma): 491 nM
- TGI (MALME-3M melanoma): > 82400 nM
- GI50 (TK-10 renal): 356 nM
- TGI (TK-10 renal): > 100000 nM
- GI50 (NCI-H23 lung): 537 nM
- TGI (NCI-H23 lung): > 100000 nM
- GI50 (KM12 colon): 418 nM
- TGI (KM12 colon): > 100000 nM
- GI50 (NCI-H226 lung): 174 nM
- TGI (NCI-H226 lung): 5190 nM
- GI50 (OVCAR-3 ovarian): 177 nM
- TGI (OVCAR-3 ovarian): > 100000 nM
- GI50 (NCI-H460 lung): 179 nM
- TGI (NCI-H460 lung): 16000 nM
- GI50 (786-0 renal): 246 nM
- TGI (786-0 renal): > 100000 nM
- GI50 (OVCAR-8 ovarian): 320 nM
- TGI (OVCAR-8 ovarian): > 69500 nM
- GI50 (U251 CNS): 238 nM
- TGI (U251 CNS): > 41000 nM
- GI50 (SW-620 colon): 438 nM
- TGI (SW-620 colon): > 100000 nM
- GI50 (PC-3 prostate): 409 nM
- TGI (PC-3 prostate): > 100000 nM
- GI50 (LOX IMVI melanoma): 150 nM
- TGI (LOX IMVI melanoma): 2760 nM
- GI50 (M14 melanoma): 210 nM
- TGI (M14 melanoma): 2450 nM
- GI50 (MOLT-4 leukemia): 253 nM
- TGI (MOLT-4 leukemia): > 100000 nM
- GI50 (SK-MEL-2 melanoma): 777 nM
- TGI (SK-MEL-2 melanoma): > 100000 nM
- GI50 (EKVX NSCLC): 222 nM
- TGI (EKVX NSCLC): > 100000 nM
- GI50 (ACHN renal): 179 nM
- TGI (ACHN renal): > 100000 nM
- GI50 (NCI/ADR-RES ovarian): 467 nM
- TGI (NCI/ADR-RES ovarian): > 44400 nM
- GI50 (A549 NSCLC): 542 nM
- TGI (A549 NSCLC): > 100000 nM
